Legend:
Mouse T cells [1] = experiment: metabolome analysis; format: cell-based; conditions: 5 days, 0.5 μM, vs vehicle
Protocol: Mouse T cells were stimulated and the numbers of cells were expanded for 5 days in vitro in the presence of 0.5 μM p38 inhibitor. […] FIG. 7B is a schematic illustrating glycolysis and the citric acid cycle.

Mouse T cells [2] = experiment: mouse T cells stimulated and expanded 5 days with Birb796: gamma H2AX, cell counts, CD44/CD62L; format: cell-based; conditions: mouse T cells expanded 5 days in vitro; with increases in the dosage of p38i
Protocol: Mouse T cells were stimulated and the numbers of cells were expanded for 5 days in vitro in the presence of the p38 inhibitor Birb796. The percentages of cells with high levels of gamma H2AX, the percentages of cell counts, and the expression of CD44 and CD62L were measured. As shown in FIGS. 4C-4F, with increases in the dosage of p38 inhibitor […]), the DNA damage in cells was reduced and the cell counts and percentage of CD62L+ cells were increased.

Mouse T cells [3] = experiment: SEAHORSE analysis of respiratory capacity; format: cell-based; conditions: 5 days, 0.5 μM
Protocol: Mouse T cells were stimulated and expanded for 5 days in vitro in the presence of 0.5 μM p38 inhibitor. SEAHORSE analysis was performed to determine spare respiratory capacity of cells.

Mouse T cells [4] = experiment: apoptosis during expansion by Annexin; format: cell-based; conditions: 4 days, 0.5 μM
Protocol: Mouse T cells were stimulated and the numbers of cells were expanded for 4 days in vitro in the presence of 0.5 μM p38 inhibitor. The levels of cells which underwent apoptosis were measured.

Mouse T cells [5] = experiment: intracellular staining and FACS of phosphorylation of Akt and its substrates; format: cell-based; conditions: 5 days, 0.5 μM
Protocol: Mouse T cells were stimulated and the numbers of cells were expanded for 5 days in vitro in presence of 0.5 μM p38 inhibitor. Intracellular staining and FACS analysis was performed to measure phosphorylation of Akt and its substrates in T cells.

Subcutaneous tumor = experiment: adoptive cell transfer of Pmel-1 T cells expanded ex vivo with p38 inhibitor into tumor-bearing mice; format: in vivo; conditions: mice receiving Pmel-1 T cells expanded ex vivo 10 days with p38 inhibitor
Protocol: Subcutaneous tumor growth was measured in mice receiving adoptive cell transfer of Pmel-1 T cells which were expanded ex vivo for 10 days in the presence of p38 inhibitor. Tumor area (FIG. 10G) and overall survival (FIG. 10H) are shown. Significance for tumor growth kinetics were calculated by Wilcoxon rank-sum test. Survival significance was assessed by a log-rank Mantel-Cox test (n=5 mice per treatment group).

[6] = tested on: human healthy donor derived T cells and melanoma patient-derived T cells; experiment: human T cells expanded 20-25 days with p38i: CD8+CD62L+ cells; format: cell-based; conditions: 0.5 uM p38i, vs vehicle
Protocol: The numbers of human healthy donor derived T cells and melanoma patient-derived T cells were expanded for 20-25 days in presence of 0.5 uM […]. The percentage of CD8+CD62L+ cells was measured.

Mouse T cells [7] = experiment: cell proliferation by dilution of CSFE proliferation dye; format: cell-based; conditions: hgp100 peptide or anti-CD3/CD28 stimulation, 4 days, 0.5 μM
Protocol: Mouse T cells were stimulated using either hgp100 peptide or anti-CD3/CD28 antibodies, and the numbers of cells were expanded for 4 days in vitro in the presence of 0.5 μM p38 inhibitor. Cell proliferation was measured.

[8] = tested on: CD19 antigen expressing NALM6 cells; experiment: specific cytolysis by anti-CD19 CAR human T cells expanded with p38i; format: cell-based; conditions: anti-CD19 CAR T cells from 2 healthy donors, expanded 20-25 days, overnight coculture with NALM6
Protocol: Human T cells from 2 healthy donors were transduced with a retrovirus encoding an anti-CD19 CAR and the numbers of cells were expanded for 20-25 days in the presence of […]. Specific cytolysis was measured. […] T cells and NALM6 cells were cocultured overnight.

Mouse T cells [9] = experiment: RNA extraction and qPCR gene expression; format: cell-based; conditions: 5 days, 0.5 μM, qPCR
Protocol: Mouse T cells were stimulated and expanded for 5 days in vitro in the presence of 0.5 μM p38 inhibitor. RNA extraction and qPCR analysis were performed to determine differences in gene expression.

Human T cells = experiment: IFN-gamma production by human T cells expanded with p38i; format: cell-based; conditions: human T cells expanded 20-25 days
From the text: Human T cells were expanded for 20-25 days in the presence of […].

Mouse T cells [10] = experiment: cytokine production after brief anti-CD3/anti-CD28 stimulation; format: cell-based; conditions: 10 days, 0.5 μM
Protocol: Mouse T cells were stimulated and expanded for 10 days in vitro in the presence of 0.5 μM p38 inhibitor. Cells were briefly stimulated with anti-CD3/anti-CD28 in the presence of GOLGI-STOP protein transport inhibitor and GOLGI-PLUG protein transport inhibitor to determine the cytokine production ability of cells. As shown in FIGS. 10A-10C, IFN-gamma and IL-2 production increased following […] treatment. TNF alpha production decreased following […] treatment.

Mouse T cells [11] = experiment: cellular and mitochondrial ROS by FACS; format: cell-based; conditions: 10 days, 0.5 μM
Protocol: Mouse T cells were stimulated and expanded for 10 days in vitro in the presence of 0.5 μM p38 inhibitor. Cellular and mitochondrial ROS levels were measured using FACS analysis.

## Cc1ccc(-n2nc(C(C)(C)C)cc2NC(=O)Nc2ccc(OCCN3CCOCC3)c3ccccc23)cc1 [BIRB 796, doramapimod]
Mouse T cells [1]
  alpha-ketoglutarate production: reduced
  glucose production: reduced
  lactate production: reduced
  production of 9-HODE/13-HODE: reduced
  production of linoleate (18:2n6): reduced
  production of oxidized GSSG: reduced
  succinate production: reduced
Mouse T cells [2]
  DNA damage in cells (percentage of cells with high levels of gamma H2AX): reduced
  cell counts: increased
  percentage of CD62L+ cells: increased
Mouse T cells [3]
  total oxygen consumption: increased
Mouse T cells [4]
  cell death during expansion (apoptotic cell marker Annexin): reduced cell death
Mouse T cells [5]
  phosphorylation of Akt and its substrates: preserved memory-like characteristics of T cells independent of the Akt pathway
Subcutaneous tumor
  overall survival: promote survival
  tumor area: enhanced the ability of the transferred cells to reduce tumor area
[6]; healthy donor T cells
  percentage of CD8+CD62L+ cells: increased
[6]; melanoma patient T cells
  percentage of CD8+CD62L+ cells: increased
Mouse T cells [7]
  cell proliferation (dilution of CSFE proliferation dye): did not affect cell proliferation
[8]
  specific cytolysis: lysed in higher numbers
Mouse T cells [9]
  mRNA expression of Slc2a1: reduced
  mRNA expression of catalase: reduced
Human T cells
  ability to produce the effector cytokine IFN-gamma: enhanced ability
Mouse T cells [10]
  IFN-gamma production: increased
  IL-2 production: increased
  TNF alpha production: decreased
Mouse T cells [11]
  mitochondrial ROS: reduced
  total ROS: reduced

Source: patent publication US20200316122A1, “METHODS OF PRODUCING T CELL POPULATIONS USING P38 MAPK INHIBITORS” (The United States of America,as represented by the …, priority 2017, published 2020)
